Test results: ChEMBL document CHEMBL5154925, “Design and Optimization of Thienopyrimidine Derivatives as Potent and Selective PI3Kδ Inhibitors for the Treatment of B-Cell Malignancies” (J Med Chem, 2022)
Values after ≈ are worked out from the molar mass of the structure shown. Values belong to the compound of their own block, whether it stands above or below them.

Experiments:
[1] = target: Phosphatidylinositol 4,5-bisphosphate 3-kinase catalytic subunit alpha isoform (Homo sapiens, UniProt P42336); test: Inhibition of PI3Kalpha (unknown origin) using PIP2 as substrate measured after 1 hr in presence of ATP by ADP-glo luminescence assay
[2] = target: T1, Phosphatidylinositol 4,5-bisphosphate 3-kinase catalytic subunit delta isoform (Homo sapiens, UniProt O00329); test: Inhibition of PI3Kdelta (unknown origin) using PIP2 as substrate measured after 1 hr in presence of ATP by ADP-glo luminescence assay
T1 sequence (O00329 whole entry): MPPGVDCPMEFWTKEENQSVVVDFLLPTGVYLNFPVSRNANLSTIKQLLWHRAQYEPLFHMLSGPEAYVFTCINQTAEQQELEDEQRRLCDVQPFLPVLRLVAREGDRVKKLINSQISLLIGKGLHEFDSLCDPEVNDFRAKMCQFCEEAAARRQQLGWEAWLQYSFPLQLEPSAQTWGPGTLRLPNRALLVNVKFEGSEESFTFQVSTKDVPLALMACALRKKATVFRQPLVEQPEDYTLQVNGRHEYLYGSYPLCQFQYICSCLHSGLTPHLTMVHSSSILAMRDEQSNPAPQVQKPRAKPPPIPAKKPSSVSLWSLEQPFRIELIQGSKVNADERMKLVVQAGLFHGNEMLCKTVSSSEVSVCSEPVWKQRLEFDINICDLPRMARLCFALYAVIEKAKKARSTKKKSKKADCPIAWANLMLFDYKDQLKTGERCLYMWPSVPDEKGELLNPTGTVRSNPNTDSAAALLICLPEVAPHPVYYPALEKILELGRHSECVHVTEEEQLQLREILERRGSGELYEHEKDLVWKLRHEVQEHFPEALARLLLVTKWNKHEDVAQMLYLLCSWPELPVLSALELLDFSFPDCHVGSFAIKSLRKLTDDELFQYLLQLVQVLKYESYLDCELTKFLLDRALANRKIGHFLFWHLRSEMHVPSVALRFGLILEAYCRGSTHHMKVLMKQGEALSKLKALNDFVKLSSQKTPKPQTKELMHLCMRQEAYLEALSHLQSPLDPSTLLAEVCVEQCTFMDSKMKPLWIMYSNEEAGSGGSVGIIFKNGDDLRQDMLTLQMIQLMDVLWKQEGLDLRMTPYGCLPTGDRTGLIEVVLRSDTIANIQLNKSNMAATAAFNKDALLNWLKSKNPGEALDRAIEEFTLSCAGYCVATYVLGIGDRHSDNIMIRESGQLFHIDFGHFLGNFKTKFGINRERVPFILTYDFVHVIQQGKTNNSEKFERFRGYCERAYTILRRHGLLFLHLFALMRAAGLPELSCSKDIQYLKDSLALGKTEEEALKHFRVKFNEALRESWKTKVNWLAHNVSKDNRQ

[3] = target: Phosphatidylinositol 4,5-bisphosphate 3-kinase catalytic subunit gamma isoform (Homo sapiens, UniProt P48736); test: Inhibition of PI3Kgamma (unknown origin) using PIP2 as substrate measured after 1 hr in presence of ATP by ADP-glo luminescence assay
[4] = Microsomal stability in mouse liver microsomes assessed as half life; type: ADME, Microsome
[5] = Solubility of the compound in PBS; type: physicochemical
[6] = target: Phosphatidylinositol 4,5-bisphosphate 3-kinase catalytic subunit gamma isoform (Mus musculus, UniProt Q9JHG7); test: Inhibition of PI3Kgamma in C5a stimulated mouse RAW264.7 cells incubated for 10 mins by AlphaLisa assay; type: cell-based
[7] = target: T2, Phosphatidylinositol 4,5-bisphosphate 3-kinase catalytic subunit beta isoform (Homo sapiens, UniProt P42338); test: Inhibition of PI3Kbeta in LPA stimulated human PC-3 cells incubated for 10 mins by AlphaLISA assay; type: cell-based
[8] = Solubility of the compound in FaSSIF; type: physicochemical
[9] = target: T2, Phosphatidylinositol 4,5-bisphosphate 3-kinase catalytic subunit beta isoform; test: Inhibition of PI3Kbeta (unknown origin) using PIP2 as substrate measured after 1 hr in presence of ATP by ADP-glo luminescence assay
[10] = target: Serine/threonine-protein kinase mTOR (Homo sapiens, UniProt P42345); test: Inhibition of mTOR (unknown origin)
[11] = target: T1, Phosphatidylinositol 4,5-bisphosphate 3-kinase catalytic subunit delta isoform; test: Inhibition of PI3Kdelta in IgM stimulated human Raji cells incubated for 10 mins by AlphaLISA assay; type: cell-based
[12] = Plasma protein binding in mouse; type: ADME, cell-free; conditions: read-out: PPB (converted)
[13] = Microsomal stability in mouse liver microsomes assessed as intrinsic clearance; type: ADME, Microsome; conditions: read-out: CLH
[14] = target: Phosphatidylinositol 4,5-bisphosphate 3-kinase catalytic subunit alpha isoform (Mus musculus, UniProt P42337); test: Inhibition of PI3Kalpha in IGF-1 stimulated mouse C2C12 cells incubated for 10 mins by AlphaLISA assay; type: cell-based
[15] = system: Pfeiffer; test: Induction of apoptosis in human Pfeiffer cells assessed as viable […] cells at 2 uM incubated for 48 hrs by annexin V-FITC staining based flow cytometry (reference value: 81.14 %); type: functional
[16] = system: Pfeiffer; test: Induction of apoptosis in human Pfeiffer cells assessed as early apoptotic cells at 2 uM incubated for 48 hrs by annexin V-FITC staining based flow cytometry (reference value: 4.16 %); type: functional
[17] = system: Z-138; test: Antiproliferative activity against human Z138 cells assessed as cell growth inhibition incubated for 96 hrs by cell titer glo assay; type: functional, cell-based; conditions: Z-138, 96 h
[18] = system: Pfeiffer; test: Induction of apoptosis in human Pfeiffer cells assessed as necrotic cells at 10 uM incubated for 48 hrs by annexin V-FITC staining based flow cytometry (reference value: 6.62 %); type: functional
[19] = system: SU-DHL-6; test: Antiproliferative activity against human SU-DHL-6 cells assessed as cell growth inhibition incubated for 96 hrs by cell titer glo assay; type: functional, cell-based; conditions: SU-DHL-6, 96 h
[20] = system: DOHH-2; test: Antiproliferative activity against human DOHH-2 cells assessed as cell growth inhibition incubated for 96 hrs by cell titer glo assay; type: functional, cell-based; conditions: DOHH-2, 96 h
[21] = system: Pfeiffer; test: Induction of apoptosis in human Pfeiffer cells assessed as late apoptotic cells at 10 uM incubated for 48 hrs by annexin V-FITC staining based flow cytometry (reference value: 7.87 %); type: functional
[22] = system: Rec1; test: Antiproliferative activity against human REC1 cells assessed as cell growth inhibition incubated for 96 hrs by cell titer glo assay; type: functional, cell-based; conditions: Rec1, 96 h
[23] = system: Pfeiffer; test: Induction of apoptosis in human Pfeiffer cells assessed as early apoptotic cells at 10 uM incubated for 48 hrs by annexin V-FITC staining based flow cytometry (reference value: 4.16 %); type: functional
[24] = Toxicity in nude mouse xenografted with human Pfeiffer cells assessed as effect on body weight at 30 mg/kg, po BID for 21 days and measured twice weekly; type: organism-based; conditions: in vivo, 504 h, time 21 day
[25] = system: JeKo-1; test: Antiproliferative activity against human JeKo-1 cells assessed as cell growth inhibition incubated for 96 hrs by cell titer glo assay; type: functional, cell-based; conditions: JeKo-1, 96 h
[26] = system: Pfeiffer; test: Induction of apoptosis in human Pfeiffer cells assessed as late apoptotic cells at 2 uM incubated for 48 hrs by annexin V-FITC staining based flow cytometry (reference value: 7.87 %); type: functional
[27] = system: Pfeiffer; test: Antiproliferative activity against human Pfeiffer cells assessed as cell growth inhibition incubated for 96 hrs by cell titer glo assay; type: functional, cell-based
[28] = system: Pfeiffer; test: Antitumor activity against human Pfeiffer cells xenografted in nude mouse assessed as tumor growth inhibition at 30 mg/kg, po BID for 21 days and measured twice weekly; type: functional; conditions: 504 h, time 21 day, read-out: TGI
[29] = system: Pfeiffer; test: Induction of apoptosis in human Pfeiffer cells assessed as necrotic cells at 2 uM incubated for 48 hrs by annexin V-FITC staining based flow cytometry (reference value: 6.62 %); type: functional
[30] = system: Pfeiffer; test: Induction of apoptosis in human Pfeiffer cells assessed as viable […] cells at 10 uM incubated for 48 hrs by annexin V-FITC staining based flow cytometry (reference value: 81.14 %); type: functional
[31] = system: SUD4; test: Antiproliferative activity against human SU-DHL-4 cells assessed as cell growth inhibition incubated for 96 hrs by cell titer glo assay; type: functional, cell-based; conditions: SU-DHL-4, 96 h

T2 sequence (P42338 whole entry, canonical isoform): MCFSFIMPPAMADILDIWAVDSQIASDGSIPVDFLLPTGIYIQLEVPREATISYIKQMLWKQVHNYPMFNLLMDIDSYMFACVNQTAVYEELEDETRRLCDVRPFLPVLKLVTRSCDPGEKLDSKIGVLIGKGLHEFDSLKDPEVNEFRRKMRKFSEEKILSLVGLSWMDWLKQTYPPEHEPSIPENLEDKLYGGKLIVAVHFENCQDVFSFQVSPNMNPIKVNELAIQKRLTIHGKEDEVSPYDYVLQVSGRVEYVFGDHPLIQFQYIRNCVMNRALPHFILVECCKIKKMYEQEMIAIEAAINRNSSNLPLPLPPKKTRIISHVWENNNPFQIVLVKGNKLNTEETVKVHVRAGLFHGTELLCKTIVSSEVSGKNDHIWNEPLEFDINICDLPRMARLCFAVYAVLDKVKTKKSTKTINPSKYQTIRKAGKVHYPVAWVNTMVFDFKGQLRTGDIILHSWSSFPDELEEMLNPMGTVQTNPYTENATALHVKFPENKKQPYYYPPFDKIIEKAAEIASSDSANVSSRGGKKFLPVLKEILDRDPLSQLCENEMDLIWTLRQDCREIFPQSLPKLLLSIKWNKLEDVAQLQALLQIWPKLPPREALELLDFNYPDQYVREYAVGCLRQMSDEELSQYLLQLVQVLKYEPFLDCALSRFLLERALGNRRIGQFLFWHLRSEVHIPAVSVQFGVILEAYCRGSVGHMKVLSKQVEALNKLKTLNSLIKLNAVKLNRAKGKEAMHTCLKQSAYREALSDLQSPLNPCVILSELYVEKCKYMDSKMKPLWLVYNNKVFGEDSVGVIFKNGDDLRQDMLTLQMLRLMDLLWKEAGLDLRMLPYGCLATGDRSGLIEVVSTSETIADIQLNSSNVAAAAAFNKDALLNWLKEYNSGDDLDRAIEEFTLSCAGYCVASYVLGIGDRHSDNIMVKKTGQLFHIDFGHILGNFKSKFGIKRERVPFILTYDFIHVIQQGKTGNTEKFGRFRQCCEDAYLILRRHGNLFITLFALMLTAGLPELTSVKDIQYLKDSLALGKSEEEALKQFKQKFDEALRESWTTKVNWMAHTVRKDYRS
Chain of Phosphatidylinositol 4,5-bisphosphate 3-kinase catalytic subunit alpha isoform (Homo sapiens, UniProt P42336) (P42336 whole entry, canonical isoform): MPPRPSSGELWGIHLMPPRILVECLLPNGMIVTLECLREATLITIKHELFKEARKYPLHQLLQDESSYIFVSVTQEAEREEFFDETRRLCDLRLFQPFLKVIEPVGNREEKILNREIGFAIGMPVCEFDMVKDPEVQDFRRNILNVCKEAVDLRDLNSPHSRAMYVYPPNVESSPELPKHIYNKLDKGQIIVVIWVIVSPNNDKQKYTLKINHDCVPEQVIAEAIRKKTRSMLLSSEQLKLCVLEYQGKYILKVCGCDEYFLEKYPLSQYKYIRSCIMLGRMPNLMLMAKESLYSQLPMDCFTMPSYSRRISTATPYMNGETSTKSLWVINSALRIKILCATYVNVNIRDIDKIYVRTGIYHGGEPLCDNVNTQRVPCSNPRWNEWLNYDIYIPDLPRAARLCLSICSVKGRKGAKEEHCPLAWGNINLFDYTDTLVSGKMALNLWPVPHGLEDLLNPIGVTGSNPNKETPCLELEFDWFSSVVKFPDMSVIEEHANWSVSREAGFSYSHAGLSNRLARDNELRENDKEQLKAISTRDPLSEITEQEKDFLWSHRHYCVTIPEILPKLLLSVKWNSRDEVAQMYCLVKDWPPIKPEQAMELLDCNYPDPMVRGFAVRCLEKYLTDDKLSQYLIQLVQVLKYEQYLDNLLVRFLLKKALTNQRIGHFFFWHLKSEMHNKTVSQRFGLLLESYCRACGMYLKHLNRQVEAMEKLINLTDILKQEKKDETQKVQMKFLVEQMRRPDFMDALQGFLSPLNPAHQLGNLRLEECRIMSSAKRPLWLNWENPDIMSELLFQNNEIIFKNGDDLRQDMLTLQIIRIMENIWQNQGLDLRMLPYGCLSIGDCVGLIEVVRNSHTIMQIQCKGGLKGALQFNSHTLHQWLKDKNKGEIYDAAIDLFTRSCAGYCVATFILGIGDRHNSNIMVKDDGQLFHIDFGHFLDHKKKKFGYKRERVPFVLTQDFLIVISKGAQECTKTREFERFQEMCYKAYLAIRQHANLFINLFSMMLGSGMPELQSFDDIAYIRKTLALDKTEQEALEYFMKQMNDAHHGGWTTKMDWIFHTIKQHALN
Chain of Phosphatidylinositol 4,5-bisphosphate 3-kinase catalytic subunit alpha isoform (Mus musculus, UniProt P42337) (P42337 whole entry, canonical isoform): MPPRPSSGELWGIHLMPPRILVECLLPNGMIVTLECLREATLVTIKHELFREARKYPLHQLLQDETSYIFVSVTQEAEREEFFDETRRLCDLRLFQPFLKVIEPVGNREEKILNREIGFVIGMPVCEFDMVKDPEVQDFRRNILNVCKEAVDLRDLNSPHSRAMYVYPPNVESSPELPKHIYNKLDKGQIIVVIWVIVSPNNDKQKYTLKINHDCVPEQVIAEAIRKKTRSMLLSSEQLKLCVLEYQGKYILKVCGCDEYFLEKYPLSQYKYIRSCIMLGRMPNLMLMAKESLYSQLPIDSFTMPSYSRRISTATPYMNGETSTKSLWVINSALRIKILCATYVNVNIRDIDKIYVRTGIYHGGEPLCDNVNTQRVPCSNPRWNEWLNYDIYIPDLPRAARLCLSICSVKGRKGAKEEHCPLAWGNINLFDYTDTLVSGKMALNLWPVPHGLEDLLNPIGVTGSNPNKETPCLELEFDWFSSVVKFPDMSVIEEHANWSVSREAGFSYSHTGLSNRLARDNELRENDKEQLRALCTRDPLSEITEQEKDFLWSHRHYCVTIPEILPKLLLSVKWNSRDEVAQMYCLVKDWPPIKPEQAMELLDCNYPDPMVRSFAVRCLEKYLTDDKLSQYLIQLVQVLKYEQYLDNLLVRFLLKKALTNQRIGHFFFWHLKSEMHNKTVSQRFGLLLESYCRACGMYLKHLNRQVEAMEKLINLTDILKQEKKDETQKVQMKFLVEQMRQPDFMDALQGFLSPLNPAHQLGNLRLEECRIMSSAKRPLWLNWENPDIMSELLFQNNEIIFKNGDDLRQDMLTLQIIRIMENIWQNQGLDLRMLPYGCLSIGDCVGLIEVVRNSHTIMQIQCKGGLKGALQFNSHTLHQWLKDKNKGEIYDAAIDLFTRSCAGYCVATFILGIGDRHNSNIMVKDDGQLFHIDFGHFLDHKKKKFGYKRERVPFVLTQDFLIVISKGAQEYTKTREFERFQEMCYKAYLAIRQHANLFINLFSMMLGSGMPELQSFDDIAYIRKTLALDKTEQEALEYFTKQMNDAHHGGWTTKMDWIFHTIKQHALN
Chain of Phosphatidylinositol 4,5-bisphosphate 3-kinase catalytic subunit gamma isoform (Mus musculus, UniProt Q9JHG7) (Q9JHG7 whole entry, canonical isoform): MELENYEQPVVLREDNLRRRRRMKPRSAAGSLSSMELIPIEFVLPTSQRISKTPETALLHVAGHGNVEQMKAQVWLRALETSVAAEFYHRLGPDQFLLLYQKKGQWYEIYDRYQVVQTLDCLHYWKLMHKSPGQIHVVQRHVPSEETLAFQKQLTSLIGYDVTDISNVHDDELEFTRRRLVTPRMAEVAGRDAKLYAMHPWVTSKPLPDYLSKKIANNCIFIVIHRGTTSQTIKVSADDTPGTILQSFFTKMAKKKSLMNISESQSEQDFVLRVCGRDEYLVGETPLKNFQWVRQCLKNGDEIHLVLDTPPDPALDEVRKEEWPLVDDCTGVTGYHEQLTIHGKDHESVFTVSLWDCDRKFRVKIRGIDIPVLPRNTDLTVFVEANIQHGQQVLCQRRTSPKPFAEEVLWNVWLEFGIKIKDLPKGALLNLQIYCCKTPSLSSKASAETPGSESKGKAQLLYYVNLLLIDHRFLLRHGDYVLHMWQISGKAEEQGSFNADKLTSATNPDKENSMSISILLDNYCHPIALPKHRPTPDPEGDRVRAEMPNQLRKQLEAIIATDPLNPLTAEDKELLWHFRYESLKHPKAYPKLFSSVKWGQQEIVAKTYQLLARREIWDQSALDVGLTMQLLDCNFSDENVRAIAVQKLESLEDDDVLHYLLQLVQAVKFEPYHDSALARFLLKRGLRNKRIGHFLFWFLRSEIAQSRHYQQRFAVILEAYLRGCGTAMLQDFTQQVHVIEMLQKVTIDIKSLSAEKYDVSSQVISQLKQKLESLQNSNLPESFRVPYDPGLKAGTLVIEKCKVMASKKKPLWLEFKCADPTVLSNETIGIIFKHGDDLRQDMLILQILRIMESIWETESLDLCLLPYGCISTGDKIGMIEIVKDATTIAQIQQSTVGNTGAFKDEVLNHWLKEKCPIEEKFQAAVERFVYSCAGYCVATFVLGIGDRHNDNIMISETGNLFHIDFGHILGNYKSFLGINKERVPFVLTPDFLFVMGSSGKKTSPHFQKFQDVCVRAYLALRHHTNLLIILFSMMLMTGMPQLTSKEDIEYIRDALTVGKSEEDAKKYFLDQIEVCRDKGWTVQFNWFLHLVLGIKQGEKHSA

SMILES: COc1cc(-c2cc3c(N[C@H]4CCN(C(=O)C5CCC5)C4)ncnc3s2)cnc1OC
IC50 [3]: 1990 nM | IC50 [1]: 172 nM | half-life [4]: 15.9 min | solubility [5]: 5.67 µM (≈ 2.49 µg/mL) | IC50 [6]: 4780 nM | IC50 [7]: 4210 nM | solubility [8]: 39.7 µM (≈ 17.4 µg/mL) | IC50 [9]: 1370 nM | IC50 [10]: > 10000 nM | IC50 [11]: 33.7 nM | fraction unbound [12]: 0.01 | IC50 [2]: 2.2 nM | CLint scaled [13]: 342 mL/min/kg | IC50 [14]: 20800 nM

SMILES: CCC(=O)N1CC[C@H](Nc2ncnc3sc(-c4ccc(OC)c(F)c4)cc23)C1
IC50 [1]: 5640 nM | IC50 [2]: 182 nM

SMILES: CCC(=O)N1CC[C@H](Oc2ncnc3sc(-c4cnc(OC)c(F)c4)cc23)C1
IC50 [1]: 7860 nM | IC50 [2]: 97.5 nM

SMILES: COc1cc(-c2cc3c(N[C@H]4CCN(C(=O)C5CCCCC5)C4)ncnc3s2)cnc1OC
IC50 [1]: 718 nM | IC50 [2]: 30 nM

SMILES: CCC(=O)N1CC[C@H](Nc2ncnc3c2CN(c2cnc(OC)c(C(F)(F)F)c2)CC3)C1 [LENIOLISIB]
IC50 [3]: 902 nM | Activity [15]: 78.31% | Activity [16]: 5.7% | IC50 [17]: 31200 nM | Activity [18]: 5.69% | IC50 [19]: 770 nM | IC50 [1]: 75.5 nM | IC50 [20]: 29200 nM | half-life [4]: 15.4 min | solubility [5]: 57.9 µM (≈ 26.1 µg/mL) | IC50 [6]: 4040 nM | Activity [21]: 12.88% | IC50 [7]: 2680 nM | IC50 [22]: 1280 nM | solubility [8]: 77.6 µM (≈ 35 µg/mL) | Activity [23]: 5.53% | Activity [24]: 10% | IC50 [25]: 31700 nM | Activity [26]: 11.23% | IC50 [9]: 363 nM | IC50 [10]: > 10000 nM | IC50 [27]: 3750 nM | inhibition in vivo at 30 mg/kg [28]: 53.8% | fraction unbound [12]: 0.066 | Activity [29]: 4.76% | CLint scaled [13]: 355 mL/min/kg | Activity [30]: 75.9% | IC50 [14]: 19600 nM | IC50 [31]: 8250 nM

SMILES: CCC(=O)N1CC[C@H](Nc2ncnc3sc(-c4cccc(S(C)(=O)=O)c4)cc23)C1
IC50 [1]: 3070 nM | IC50 [2]: 128 nM

SMILES: CCC(=O)N1CC[C@H](Oc2ncnc3sc(-c4cnc(OC)c(C(F)(F)F)c4)cc23)C1
IC50 [1]: > 10000 nM | IC50 [2]: 269 nM

SMILES: CCC(=O)N1CC[C@H](Oc2ncnc3sc(-c4cnc(OC)c(OC)c4)cc23)C1
IC50 [1]: 428 nM | IC50 [2]: 11 nM

Results, then the compound that gave them:

IC50 [1]: 6290 nM | IC50 [2]: 45 nM
SMILES: CCC(=O)N1CC[C@H](Nc2ncnc3sc(-c4cnc(OC)c(C)c4)cc23)C1

IC50 [1]: 4030 nM | IC50 [2]: 60 nM
SMILES: CCC(=O)N1CC[C@H](Nc2ncnc3sc(-c4cnc(OC)c(C#N)c4)cc23)C1

IC50 [1]: 2580 nM | IC50 [2]: 37 nM
SMILES: CCC(=O)N1CC[C@H](Nc2ncnc3sc(-c4cnc(OC)nc4)cc23)C1

IC50 [1]: > 10000 nM | IC50 [2]: 1010 nM
SMILES: CCC(=O)N1CC[C@H](Nc2ncnc3sc(-c4ccc(F)c(C#N)c4)cc23)C1

IC50 [1]: > 1000 nM | IC50 [2]: 458 nM
SMILES: CCC(=O)N1CC[C@H](Nc2ncnc3sc(-c4ccc(C#N)nc4)cc23)C1

IC50 [1]: 7330 nM | IC50 [2]: 156 nM
SMILES: CCC(=O)N1CC[C@H](Oc2ncnc3sc(-c4cnc(OC)c(C#N)c4)cc23)C1
